Source: paper PMC12656268, “Venom Peptides Across Asian and American Tarantulas Utilize Dual Pharmacology to Target Activation and Fast Inactivation of Voltage-Gated Sodium Channels” (Toxins, 2025)
Where “and” joins values, the source holds several entries; their conditions need not be identical. Identical values can stand only once. Entries after “also recorded” stand apart in the source; their conditions may differ. Positions of bridges follow the written chain, without caps; N, C: chain ends. Residues, ends and D or L forms follow the SMILES beside them.

Key:
[1] = molecular target: T1, NaV1.3 (Homo sapiens, UniProt Q9NY46); assay: Slowing of fast inactivation of NaV1.3; assay type: cell-based
Procedure: Sodium channel currents were recorded from HEK293 cells expressing human NaV isoforms together with the β1 auxiliary subunit (SB Drug Discovery, Glasgow, UK) using the QPatch 16X automated whole-cell patch-clamp platform (Sophion Bioscience A/S, Ballerup, Denmark). The external recording solution contained (in mM) the following: 140 NaCl, 3 KCl, 1 CaCl2, 1 MgCl2, 0.1 CdCl2, 20 tetraethylammonium chloride (TEA-Cl), and 5 HEPES; pH was adjusted to 7.3 and osmolarity to 320 mOsm. The internal (pipette) solution consisted of (in mM) the following: 140 CsF, 10 NaCl, 10 HEPES, and 1/5 EGTA/CsOH, also adjusted to pH 7.3 and 320 mOsm. Cells were voltage-clamped at a holding potential of −80 mV, and inward Na^+ currents were evoked by 20 ms depolarizing pulses to 0 mV following a 200 ms hyperpolarizing prepulse to −120 mV. To obtain concentration–response curves, cells at holding potential were incubated for 5 min with increasing concentrations of Oa1a peptides. For determining the potency of Oa1a peptides to inhibit peak current, the maximum peak current within the 20 ms at 0 mV was measured. For determining the potency of Oa1a-NH2 to slow fast inactivation, peak current values were measured at 20 ms of the 0 mV depolarization step. Ion currents (INa) were plotted as I/Imax, where I = current value and Imax = highest current value within the experiment.
(§1) For calcium influx experiments, bioactivity comparisons between venom fractions and controls were based on the difference between the maximal and minimal fluorescence intensity values obtained from single-replicate assays. Electrophysiological data analysis was conducted using GraphPad Prism (version 8; GraphPad Software, San Diego, CA, USA). Nonlinear regression was applied to fit the concentration–response relationships using a variable Hill slope: log(inhibitor) versus normalized response for determining IC50 values, and log(agonist) versus normalized response for EC50 calculations. Reversibility and dissociation kinetics were analyzed by fitting data with a single-phase exponential decay model, while voltage-dependence of steady-state activation and inactivation parameters were derived from Boltzmann sigmoid fits of normalized conductance (G/Gmax) or current (I/Imax) values to determine the half-activation or half-inactivation voltages (V50). Data are expressed as mean ± SEM, where n represents the number of individual cells analyzed.

[2] = molecular target: hNaV1.7 (Homo sapiens, UniProt Q15858); assay: hNaV1.7 peak current inhibition, automated whole-cell patch clamp (QPatch 16X); assay type: cell-based; conditions: HEK293 + β1; holding −80 mV, 20 ms step to 0 mV from −120 mV 200 ms prepulse; 5 min incubation; mean ± SEM, 3 to 9 independent experiments; read-out: IC50, inhibition of peak current, NaV1.7
Procedure: (§2) Unless otherwise specified, all cell culture reagents were obtained from Life Technologies (Carlsbad, CA, USA). The human neuroblastoma cell line SH-SY5Y (ATCC CRL-2266; Manassas, VA, USA) was maintained in RPMI medium supplemented with 15% fetal bovine serum (FBS) and 2 mM L-glutamine. HEK293 cells stably expressing human NaV channel isoforms together with the β1 auxiliary subunit (SB Drug Discovery, Glasgow, UK) were propagated in Minimal Essential Medium (MEM; Sigma-Aldrich, St. Louis, MO, USA) containing 10% FBS, 100 U/mL penicillin, 100 µg/mL streptomycin, 2 mM L-glutamine, and selective antibiotics (blasticidin, geneticin, and zeocin) at concentrations recommended by the supplier. […]
(§3) Sodium channel currents were recorded from HEK293 cells expressing human NaV isoforms together with the β1 auxiliary subunit (SB Drug Discovery, Glasgow, UK) using the QPatch 16X automated whole-cell patch-clamp platform (Sophion Bioscience A/S, Ballerup, Denmark). […] For determining the potency of Oa1a peptides to inhibit peak current, the maximum peak current within the 20 ms at 0 mV was measured. For determining the potency of Oa1a-NH2 to slow fast inactivation, peak current values were measured at 20 ms of the 0 mV depolarization step. […]
as §1, with “Electrophysiological data analysis was conducted using GraphPad Prism (version 8; GraphPad Software, San Diego, CA, USA). Nonlinear regression was applied to fit the concentration–response relationships using a variable Hill slope: log(inhibitor) versus normalized response for determining IC50 values, and log(agonist) versus normalized response for EC50 calculations.” left out

[3] = molecular target: hNaV1.1 (Homo sapiens, UniProt P35498); assay: hNaV1.1 peak current inhibition, automated whole-cell patch clamp (QPatch 16X); assay type: cell-based; conditions: HEK293 + β1; holding −80 mV, 20 ms step to 0 mV from −120 mV 200 ms prepulse; 5 min incubation; mean ± SEM, 3 to 9 independent experiments; read-out: IC50, inhibition of peak current, NaV1.1
Procedure: as §2, §3
as §1, with “Electrophysiological data analysis was conducted using GraphPad Prism (version 8; GraphPad Software, San Diego, CA, USA). Nonlinear regression was applied to fit the concentration–response relationships using a variable Hill slope: log(inhibitor) versus normalized response for determining IC50 values, and log(agonist) versus normalized response for EC50 calculations.” left out

[4] = molecular target: hNaV1.4 (Homo sapiens, UniProt P35499); assay: hNaV1.4 peak current inhibition, automated whole-cell patch clamp (QPatch 16X); assay type: cell-based; conditions: HEK293 + β1; holding −80 mV, 20 ms step to 0 mV from −120 mV 200 ms prepulse; 5 min incubation; mean ± SEM, 3 to 9 independent experiments; read-out: IC50, inhibition of peak current, NaV1.4
Procedure: as §2, §3
as §1, with “Electrophysiological data analysis was conducted using GraphPad Prism (version 8; GraphPad Software, San Diego, CA, USA). Nonlinear regression was applied to fit the concentration–response relationships using a variable Hill slope: log(inhibitor) versus normalized response for determining IC50 values, and log(agonist) versus normalized response for EC50 calculations.” left out

[5] = test system: hNaV1.1 to hNaV1.7; assay: NaV subtype preference across NaV1.1 to NaV1.7, patch clamp; assay type: cell-based, human; conditions: NaV1.1 to NaV1.7, closed-state voltage protocol
Procedure: Unless otherwise specified, all cell culture reagents were obtained from Life Technologies (Carlsbad, CA, USA). The human neuroblastoma cell line SH-SY5Y (ATCC CRL-2266; Manassas, VA, USA) was maintained in RPMI medium supplemented with 15% fetal bovine serum (FBS) and 2 mM L-glutamine. HEK293 cells stably expressing human NaV channel isoforms together with the β1 auxiliary subunit (SB Drug Discovery, Glasgow, UK) were propagated in Minimal Essential Medium (MEM; Sigma-Aldrich, St. Louis, MO, USA) containing 10% FBS, 100 U/mL penicillin, 100 µg/mL streptomycin, 2 mM L-glutamine, and selective antibiotics (blasticidin, geneticin, and zeocin) at concentrations recommended by the supplier. HEK293T cells expressing the human CaV3.2 channel (a generous gift from Prof. Emmanuel Bourinet, Institut de Génomique Fonctionnelle, Université de Montpellier, France, and Prof. Edward Perez-Reyes, University of Virginia School of Medicine, USA) were grown in Dulbecco’s MEM supplemented with 10% FBS, 100 U/mL penicillin, 100 µg/mL streptomycin, and 750 µg/mL geneticin.
Sodium channel currents were recorded from HEK293 cells expressing human NaV isoforms together with the β1 auxiliary subunit (SB Drug Discovery, Glasgow, UK) using the QPatch 16X automated whole-cell patch-clamp platform (Sophion Bioscience A/S, Ballerup, Denmark). The external recording solution contained (in mM) the following: 140 NaCl, 3 KCl, 1 CaCl2, 1 MgCl2, 0.1 CdCl2, 20 tetraethylammonium chloride (TEA-Cl), and 5 HEPES; pH was adjusted to 7.3 and osmolarity to 320 mOsm. The internal (pipette) solution consisted of (in mM) the following: 140 CsF, 10 NaCl, 10 HEPES, and 1/5 EGTA/CsOH, also adjusted to pH 7.3 and 320 mOsm. […] For determining the potency of Oa1a peptides to inhibit peak current, the maximum peak current within the 20 ms at 0 mV was measured. For determining the potency of Oa1a-NH2 to slow fast inactivation, peak current values were measured at 20 ms of the 0 mV depolarization step. […]
as §1, with “Electrophysiological data analysis was conducted using GraphPad Prism (version 8; GraphPad Software, San Diego, CA, USA). Nonlinear regression was applied to fit the concentration–response relationships using a variable Hill slope: log(inhibitor) versus normalized response for determining IC50 values, and log(agonist) versus normalized response for EC50 calculations.” left out

[6] = test system: NaV1.7; assay: Voltage dependence of steady-state inactivation and activation, NaV1.7; assay type: cell-based, human
Procedure: (§4) The voltage dependence of steady-state activation was assessed by recording sodium currents evoked by depolarizing voltage steps ranging from −110 mV to +80 mV in 5 mV increments. Peak conductance (GNa) was derived using the equation G = I/(V − Vrev), where I denotes the measured current, V the applied membrane potential, and Vrev the sodium reversal potential. To evaluate the voltage dependence of steady-state fast inactivation, a two-pulse protocol was used. Cells were conditioned with 500 ms pre-pulses at potentials between −130 mV and −10 mV (10 mV increments), followed by a 20 ms test depolarization to 0 mV to elicit sodium currents. The steady-state fast inactivation currents were plotted as I/Imax, where I = current value and Imax = highest current value within the experiment. The voltage-dependence of steady-state activation and inactivation were determined either in the absence of peptide or following 5 min exposure to peptide at the respective IC50 concentration at the NaV subtype analyzed to streamline the investigation using an effective single concentration as previously described by us.
as §1

[7] = molecular target: T1, NaV1.3; assay: Voltage dependence of steady-state inactivation and activation, NaV1.3; assay type: cell-based
Procedure: as §4, §1

T1 sequence (Q9NY46 whole entry, canonical isoform): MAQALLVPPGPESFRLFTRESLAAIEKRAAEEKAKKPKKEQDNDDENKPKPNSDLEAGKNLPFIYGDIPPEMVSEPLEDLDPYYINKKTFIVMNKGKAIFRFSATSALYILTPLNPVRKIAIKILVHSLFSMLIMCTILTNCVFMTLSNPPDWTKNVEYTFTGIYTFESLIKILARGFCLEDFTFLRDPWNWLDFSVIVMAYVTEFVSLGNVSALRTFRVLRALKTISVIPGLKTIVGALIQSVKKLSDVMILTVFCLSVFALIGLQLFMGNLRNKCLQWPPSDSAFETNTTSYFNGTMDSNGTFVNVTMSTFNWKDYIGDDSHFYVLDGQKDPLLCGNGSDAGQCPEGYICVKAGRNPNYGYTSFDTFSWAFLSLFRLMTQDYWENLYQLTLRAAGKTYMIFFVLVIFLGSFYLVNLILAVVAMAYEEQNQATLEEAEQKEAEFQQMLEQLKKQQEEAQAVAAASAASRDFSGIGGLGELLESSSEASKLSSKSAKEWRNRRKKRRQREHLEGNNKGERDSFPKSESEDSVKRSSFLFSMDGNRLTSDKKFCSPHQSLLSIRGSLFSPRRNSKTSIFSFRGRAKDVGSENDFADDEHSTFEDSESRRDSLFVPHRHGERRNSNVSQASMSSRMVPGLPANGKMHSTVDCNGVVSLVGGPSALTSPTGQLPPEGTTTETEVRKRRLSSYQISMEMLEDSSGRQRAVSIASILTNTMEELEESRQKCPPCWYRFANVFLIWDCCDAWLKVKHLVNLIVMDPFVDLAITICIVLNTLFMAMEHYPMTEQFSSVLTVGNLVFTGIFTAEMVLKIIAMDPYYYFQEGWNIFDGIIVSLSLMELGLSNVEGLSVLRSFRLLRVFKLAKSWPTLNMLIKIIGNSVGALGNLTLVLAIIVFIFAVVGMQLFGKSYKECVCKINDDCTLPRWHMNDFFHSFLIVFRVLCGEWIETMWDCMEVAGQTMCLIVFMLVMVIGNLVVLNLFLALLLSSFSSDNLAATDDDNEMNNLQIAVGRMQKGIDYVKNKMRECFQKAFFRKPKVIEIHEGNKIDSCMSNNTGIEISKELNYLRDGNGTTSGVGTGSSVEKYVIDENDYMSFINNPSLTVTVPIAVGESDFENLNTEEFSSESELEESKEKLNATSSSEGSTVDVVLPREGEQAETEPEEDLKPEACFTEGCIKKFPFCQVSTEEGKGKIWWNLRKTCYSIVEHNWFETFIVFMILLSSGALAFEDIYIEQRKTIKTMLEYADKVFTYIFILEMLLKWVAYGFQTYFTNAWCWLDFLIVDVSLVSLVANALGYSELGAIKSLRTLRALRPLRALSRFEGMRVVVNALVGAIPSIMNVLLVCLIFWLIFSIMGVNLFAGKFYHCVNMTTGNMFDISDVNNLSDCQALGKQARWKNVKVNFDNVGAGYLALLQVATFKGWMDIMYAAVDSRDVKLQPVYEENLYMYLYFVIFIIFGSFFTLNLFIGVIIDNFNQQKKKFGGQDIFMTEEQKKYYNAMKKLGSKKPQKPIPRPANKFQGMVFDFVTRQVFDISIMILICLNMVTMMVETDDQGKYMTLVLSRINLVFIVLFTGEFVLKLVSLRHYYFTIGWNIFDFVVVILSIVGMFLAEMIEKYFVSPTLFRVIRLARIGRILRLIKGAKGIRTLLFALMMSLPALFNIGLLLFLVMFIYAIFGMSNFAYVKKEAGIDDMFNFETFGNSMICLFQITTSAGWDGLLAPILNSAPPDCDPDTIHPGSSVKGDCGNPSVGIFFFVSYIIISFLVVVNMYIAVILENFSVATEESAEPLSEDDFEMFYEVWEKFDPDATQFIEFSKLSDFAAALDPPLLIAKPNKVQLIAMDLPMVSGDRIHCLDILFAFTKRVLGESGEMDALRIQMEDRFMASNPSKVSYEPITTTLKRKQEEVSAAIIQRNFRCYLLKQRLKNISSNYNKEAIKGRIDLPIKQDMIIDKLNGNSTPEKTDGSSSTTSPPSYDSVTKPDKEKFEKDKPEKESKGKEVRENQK
T1 sequence (Q07699 19-218, further chain): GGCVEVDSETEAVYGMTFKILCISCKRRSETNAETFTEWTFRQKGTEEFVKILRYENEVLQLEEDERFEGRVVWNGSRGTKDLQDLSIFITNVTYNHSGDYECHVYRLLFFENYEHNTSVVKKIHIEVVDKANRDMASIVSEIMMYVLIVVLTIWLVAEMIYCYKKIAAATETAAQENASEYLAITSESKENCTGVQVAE
Sequence of hNaV1.7 (Q07699 19-218): as the sequence (Q07699 19-218, further chain) above
Sequence of hNaV1.7 (Q15858 whole entry, canonical isoform): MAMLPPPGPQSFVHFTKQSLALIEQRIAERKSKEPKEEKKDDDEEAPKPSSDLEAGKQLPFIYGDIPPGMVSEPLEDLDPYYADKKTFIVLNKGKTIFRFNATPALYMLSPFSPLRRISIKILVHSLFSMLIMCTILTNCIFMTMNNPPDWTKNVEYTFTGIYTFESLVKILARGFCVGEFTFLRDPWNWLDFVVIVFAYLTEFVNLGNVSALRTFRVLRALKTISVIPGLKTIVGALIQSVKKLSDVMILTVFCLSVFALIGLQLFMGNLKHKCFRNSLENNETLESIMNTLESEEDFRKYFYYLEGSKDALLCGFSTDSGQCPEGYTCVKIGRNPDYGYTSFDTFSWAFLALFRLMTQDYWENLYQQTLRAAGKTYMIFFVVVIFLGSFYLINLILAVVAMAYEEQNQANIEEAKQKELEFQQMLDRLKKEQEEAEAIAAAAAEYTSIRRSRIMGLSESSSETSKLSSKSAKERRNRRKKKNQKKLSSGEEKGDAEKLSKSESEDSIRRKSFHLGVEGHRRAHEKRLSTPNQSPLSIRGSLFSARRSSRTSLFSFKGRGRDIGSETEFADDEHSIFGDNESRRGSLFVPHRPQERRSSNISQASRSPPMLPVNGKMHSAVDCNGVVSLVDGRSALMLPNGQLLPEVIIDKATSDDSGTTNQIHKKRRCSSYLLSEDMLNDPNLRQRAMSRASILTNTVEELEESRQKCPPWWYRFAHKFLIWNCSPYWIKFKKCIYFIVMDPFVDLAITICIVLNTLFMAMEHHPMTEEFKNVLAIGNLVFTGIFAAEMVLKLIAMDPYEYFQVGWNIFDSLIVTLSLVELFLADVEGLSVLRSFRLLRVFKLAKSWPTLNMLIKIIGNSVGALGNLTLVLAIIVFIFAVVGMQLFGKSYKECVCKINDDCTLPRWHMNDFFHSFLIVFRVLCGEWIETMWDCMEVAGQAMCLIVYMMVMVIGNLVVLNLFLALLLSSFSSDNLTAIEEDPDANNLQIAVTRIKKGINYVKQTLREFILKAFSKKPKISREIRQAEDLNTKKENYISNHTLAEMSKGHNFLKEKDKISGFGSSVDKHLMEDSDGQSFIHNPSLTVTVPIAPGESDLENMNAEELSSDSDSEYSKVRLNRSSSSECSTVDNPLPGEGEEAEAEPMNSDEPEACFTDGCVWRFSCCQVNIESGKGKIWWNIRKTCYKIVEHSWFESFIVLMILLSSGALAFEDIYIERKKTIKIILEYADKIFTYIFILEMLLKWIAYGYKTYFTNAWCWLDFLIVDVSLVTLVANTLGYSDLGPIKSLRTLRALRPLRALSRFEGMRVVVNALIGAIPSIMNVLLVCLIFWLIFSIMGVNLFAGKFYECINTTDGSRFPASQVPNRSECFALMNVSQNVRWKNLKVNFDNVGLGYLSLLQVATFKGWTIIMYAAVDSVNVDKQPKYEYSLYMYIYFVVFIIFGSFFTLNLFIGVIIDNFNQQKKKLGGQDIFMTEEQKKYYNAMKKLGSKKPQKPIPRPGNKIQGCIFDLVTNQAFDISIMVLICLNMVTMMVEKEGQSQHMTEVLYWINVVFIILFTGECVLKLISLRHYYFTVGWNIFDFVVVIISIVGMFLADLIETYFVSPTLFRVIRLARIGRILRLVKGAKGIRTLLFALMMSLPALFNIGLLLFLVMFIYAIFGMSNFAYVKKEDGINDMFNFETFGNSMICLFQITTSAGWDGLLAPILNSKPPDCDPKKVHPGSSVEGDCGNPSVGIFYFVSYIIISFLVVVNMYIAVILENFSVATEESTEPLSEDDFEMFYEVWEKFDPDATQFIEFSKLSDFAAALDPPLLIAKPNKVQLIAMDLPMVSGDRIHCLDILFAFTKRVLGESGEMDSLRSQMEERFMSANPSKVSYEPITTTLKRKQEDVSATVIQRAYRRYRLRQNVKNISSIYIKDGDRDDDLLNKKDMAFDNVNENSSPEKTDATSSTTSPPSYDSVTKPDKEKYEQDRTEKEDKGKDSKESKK

SMILES: CC(C)C[C@@H]1NC(=O)[C@H](Cc2ccccc2)NC(=O)[C@H](Cc2ccc(O)cc2)NC(=O)[C@H](CCCNC(=N)N)NC(=O)[C@@H](NC(=O)[C@@H](N)CCC(=O)O)CSSC[C@@H]2NC(=O)[C@@H]3CSSC[C@@H](C(=O)N[C@H](C(=O)N[C@@H](Cc4c[nH]c5ccccc45)C(=O)N[C@@H](CC(=O)O)C(=O)N[C@@H](Cc4c[nH]c5ccccc45)C(=O)N[C@H](C(=O)N[C@@H](Cc4ccccc4)C(N)=O)[C@@H](C)O)C(C)C)NC(=O)[C@H](Cc4c[nH]c5ccccc45)NC(=O)[C@H](CCC(N)=O)NC(=O)[C@H](Cc4c[nH]cn4)NC(=O)[C@H](CCCCN)NC(=O)[C@H](CC(N)=O)NC(=O)[C@H](Cc4c[nH]cn4)NC(=O)[C@H](CSSC[C@H](NC(=O)CNC(=O)CNC1=O)C(=O)N[C@@H](CO)C(=O)N[C@@H](CCC(N)=O)C(=O)NCC(=O)N[C@@H](CCC(=O)O)C(=O)N[C@@H](CCCCN)C(=O)N3)NC(=O)[C@H](C(C)C)NC(=O)[C@H](CC(C)C)NC(=O)[C@H](Cc1c[nH]cn1)NC(=O)[C@H](CCC(=O)O)NC2=O [sOa1a-NH2] (H-ECRYFLGGCSQGEKCCEHLVCHNKHQWCVWDWTF-NH2; disulfide 2-16, 9-21, 15-28; N-terminus assumed)
- Slowing of fast inactivation of NaV1.3 (in words) ([1]; closed-state voltage protocol, current traces, concentrations up to those of IC50 curves): strongly slowing the fast inactivation of NaV1.3
- EC50 ([1]; current measured at 20 ms of the 0 mV depolarization step, 5 min incubation, mean ± SEM, 3 to 5 repeats): 0.0229 ± 0.0018 µM
- IC50 [2]: 0.025 ± 0.0004 µM
- IC50 [3]: 0.017 ± 0.001 µM
- IC50 [4]: 2.29 ± 0.077 µM
- NaV subtype preference of inhibition (in words) [5]: strong preference for inhibiting NaV1.1
- V50 of steady-state activation in presence of peptide, NaV1.7 ([6]; control V50 = −28 ± 0.5 mV (sOa1a-NH2 experiment), −25 ± 0.7 mV (sOa1a-OH experiment), 5 min at IC50 concentration, mean ± SEM, 3 to 5 repeats): −30 mV
- V50 of steady-state inactivation in presence of peptide, NaV1.7 ([6]; control V50 = −66 ± 0.7 mV (sOa1a-NH2 experiment), −66 ± 0.3 mV (sOa1a-OH experiment), 5 min at IC50 concentration, mean ± SEM, 3 to 5 repeats): −69 mV
- Effect on current–voltage relationships (activation, steady-state inactivation), NaV1.7 ([6]; peptide at IC50 concentration): remained nearly unaltered; also recorded: did not alter the voltage of activation or the steady-state inactivation
- V50 of steady-state activation in presence of peptide, NaV1.3 ([7]; control V50 = −21 ± 0.4 mV, steps −110 to +80 mV in 5 mV increments, mean ± SEM, 3 to 5 repeats): −26 mV
- V50 of steady-state inactivation in presence of peptide, NaV1.3 ([7]; control V50 = −71 ± 0.71 mV, 5 min exposure at IC50 concentration, 23 nM, 500 ms pre-pulses −130 to −10 mV, mean ± SEM, 3 to 5 repeats): -57 ± 1.4 mV and −57 mV
- ΔV50 of steady-state inactivation, NaV1.3 ([7]; peptide vs control, shift to more depolarized potentials, 3 to 5 repeats): 14 mV
- Shift in voltage of activation, NaV1.3 ([7]; presence of 23 nM sOa1a-NH2): ≤ 5 mV
